Patent US20240116985A1, “STAPLED PEPTIDES AND METHODS THEREOF” (priority 2020, published 2024)
Where two headings read alike, the source gives them in different places.

Tests used:
[1] = molecular target: T1, beta-catenin/TCF4 engagement (Homo sapiens, UniProt P35222); assay: Nano-BRET target engagement assay (B-cat-Halo & TCF4-Luc in HEK293 cells); format: cell-based; settings: read-out: NanoBRET Abs IC50
T1 construct: expressed in transfected cells; host or cells: HEK293
T1 sequence (P35222 1-781): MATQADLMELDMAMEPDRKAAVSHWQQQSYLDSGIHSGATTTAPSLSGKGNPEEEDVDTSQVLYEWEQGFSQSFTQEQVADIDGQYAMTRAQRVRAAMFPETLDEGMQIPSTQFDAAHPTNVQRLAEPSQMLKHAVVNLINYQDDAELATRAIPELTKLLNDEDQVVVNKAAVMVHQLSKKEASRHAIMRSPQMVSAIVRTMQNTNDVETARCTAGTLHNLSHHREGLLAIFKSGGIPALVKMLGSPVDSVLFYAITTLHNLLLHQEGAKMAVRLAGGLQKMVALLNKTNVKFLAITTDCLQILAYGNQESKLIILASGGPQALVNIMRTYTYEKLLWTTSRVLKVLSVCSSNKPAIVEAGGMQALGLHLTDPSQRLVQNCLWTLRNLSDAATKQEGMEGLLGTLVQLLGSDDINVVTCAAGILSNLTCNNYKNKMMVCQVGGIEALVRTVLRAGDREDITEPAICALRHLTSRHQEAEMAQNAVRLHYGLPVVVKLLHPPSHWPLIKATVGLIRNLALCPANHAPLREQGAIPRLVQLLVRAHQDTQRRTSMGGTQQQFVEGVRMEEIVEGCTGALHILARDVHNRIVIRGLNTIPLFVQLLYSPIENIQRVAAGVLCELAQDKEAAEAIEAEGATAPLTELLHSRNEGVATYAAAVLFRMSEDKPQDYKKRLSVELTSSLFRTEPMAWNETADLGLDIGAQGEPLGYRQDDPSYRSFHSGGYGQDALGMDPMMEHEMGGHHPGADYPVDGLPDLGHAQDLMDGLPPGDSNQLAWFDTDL

[2] = molecular target: T2, full-length beta-Catenin (Uniprot ID P35222) (Homo sapiens, UniProt P35222); assay: Fluorescence polarization IC50 (beta-catenin / 5FAM-TCF4 10-53 competition); format: binding; settings: fluorescence polarization; read-out: beta-Catenin FP IC50
T2 construct: 10 nM full-length beta-Catenin (Uniprot ID P35222)
T2 sequence (P35222 1-781): T1 sequence (P35222 1-781)

Compound | IC50 ([1]; absolute IC50) | IC50 [2] | IC50 [1]
CC(=O)N1CCC[C@]12CC=CCCCC1(CCCC=CCCCOC(=O)N3CC[C@@](C(=O)N[C@@H](Cc4ccccc4)C(=O)N[C@@H](Cc4csc5ccccc45)C(=O)N[C@@H](CCC(N)=O)C(N)=O)(C3)NC(=O)[C@H](CC(C)C)NC(=O)[C@H](Cc3ccccc3)NC(=O)[C@H](C)NC(=O)[C@H](CCO)NC(=O)[C@H](CCC(N)=O)NC(=O)[C@H](CC(=O)O)NC1=O)NC(=O)[C@H](CC1CCCCC1)NC(=O)[C@H](CC(N)=O)NC2=O (stereo partly drawn) [I-2354, Ac-PL3-Asn-Cha-B5-Asp-Gln-Hse-Ala-Phe-Leu-PyrS2-Phe-BztA-Gln-NH2] | > 20 µM | 0.1 µM | 
CC(=O)N1CCC[C@]12CC=CCCCC1(CCCC=CCOC(=O)N3CC(C(=O)N[C@@H](Cc4ccsc4)C(=O)N[C@@H](Cc4csc5ccccc45)C(=O)N[C@@H](CCC(N)=O)C(N)=O)(C3)NC(=O)[C@H](CC(C)C)NC(=O)[C@H](Cc3ccccc3)NC(=O)[C@H](C)NC(=O)[C@H](C)NC(=O)[C@H](CC(=O)O)NC(=O)[C@H](CC(=O)O)NC1=O)NC(=O)[C@H](CC(C)(C)C)NC(=O)[C@H](CC(=O)O)NC2=O (stereo partly drawn) [I-1828, Ac-PL3-Asp-Npg-B5-Asp-Asp-Ala-Ala-Phe-Leu-Az-3Thi-BztA-Gln-NH2] | > 20 µM | 0.264 µM | 
CC(=O)N1CCC[C@]12CC=CCCCC1(CCCC=CCCCOC(=O)N3CC[C@@](C(=O)N[C@@H](Cc4ccccc4Cl)C(=O)N[C@@H](Cc4csc5ccccc45)C(=O)N[C@@H](CCC(N)=O)C(N)=O)(C3)NC(=O)[C@H]([C@@H](C)O)NC(=O)[C@H](Cc3ccccc3)NC(=O)[C@H](C)NC(=O)CNC(=O)[C@H](CN(CC(=O)O)CC(F)(F)F)NC(=O)[C@H](CC(=O)O)NC1=O)NC(=O)[C@H](CC(C)(C)C)NC(=O)[C@H](CC(=O)O)NC2=O (stereo partly drawn) [I-1691, Ac-PL3-Asp-Npg-B5-Asp-TfeGA-Gly-Ala-Phe-Thr-PyrS2-2C1F-BztA-Gln-NH2] | 12.8 µM | 0.011 µM | 
CC(=O)N1CCC[C@]12CC=CCCCC1(CCCC=CCCCOC(=O)N3CC[C@@](C(=O)N[C@@H](Cc4ccccc4Cl)C(=O)N[C@@H](Cc4csc5ccccc45)C(=O)N[C@H](C(N)=O)[C@@H](C)O)(C3)NC(=O)[C@H](CC(C)C)NC(=O)[C@H](Cc3ccccc3)NC(=O)[C@H](C)NC(=O)[C@H](C)NC(=O)[C@H](CC(=O)O)NC(=O)[C@H](CC(=O)O)NC1=O)NC(=O)[C@H](CC1CCCCC1)NC(=O)[C@H](CC(=O)O)NC2=O (stereo partly drawn) [I-1139, Ac-PL3-Asp-Cha-B5-Asp-Asp-Ala-Ala-Phe-Leu-PyrS2-2C1F-BztA-Thr-NH2] | 18 µM | 0.022 µM | 
CC(=O)N1CCC[C@]12CC=CCCCC1(CCCC=CCCCOC(=O)N3CC[C@@](C(=O)N[C@@H](Cc4ccsc4)C(=O)N[C@@H](Cc4csc5ccccc45)C(=O)N[C@@H](CCC(N)=O)C(N)=O)(C3)NC(=O)[C@H](CC(C)C)NC(=O)[C@H](Cc3cccc(C(=O)O)c3)NC(=O)[C@H](C)NC(=O)[C@H](C)NC(=O)[C@H](Cc3c[nH]cn3)NC(=O)[C@H](CC(=O)O)NC1=O)NC(=O)[C@H](CC(C)(C)C)NC(=O)[C@H](CC(=O)O)NC2=O (stereo partly drawn) [I-2122, Ac-PL3-Asp-Npg-B5-Asp-His-Ala-Ala-3COOHF-Leu-PyrS2-3Thi-BztA-Gln-NH2] |  | 0.012 µM | 34.4 µM
CC(=O)N1CCC[C@]12CC=CCCCC1(CCCC=CCCCOC(=O)N3CC[C@@](C(=O)N[C@@H](Cc4ccsc4)C(=O)N[C@@H](Cc4csc5ccccc45)C(=O)N[C@@H](CCC(N)=O)C(N)=O)(C3)NC(=O)[C@H](CC(C)C)NC(=O)[C@H](Cc3ccccc3)NC(=O)[C@H](C)NC(=O)[C@H](C)NC(=O)[C@H](CN(CC(=O)O)C(=O)Cc3c(F)c(F)c(F)c(F)c3F)NC(=O)[C@H](CC(=O)O)NC1=O)NC(=O)[C@H](CC(C)(C)C)NC(=O)[C@H](CC(=O)O)NC2=O (stereo partly drawn) [I-2241, Ac-PL3-Asp-Npg-B5-Asp-[PfPhAc]GA-Ala-Ala-Phe-Leu-PyrS2-3Thi-BztA-Gln-NH2] | 17.7 µM | 0.018 µM | 
CC(=O)N1CCC[C@]12CC=CCCCC1(CCCC=CCCCOC(=O)N3CC[C@@](C(=O)N[C@@H](Cc4ccsc4)C(=O)N[C@@H](Cc4ccc5ccccc5c4)C(=O)N[C@@H](C)C(N)=O)(C3)NC(=O)[C@H](C(C)C)NC(=O)[C@H](Cc3ccccc3)NC(=O)[C@H](C)NC(=O)[C@H](CCC(N)=O)NC(=O)[C@H](Cc3cccc(C(=O)O)c3)NC(=O)[C@H](CC(=O)O)NC1=O)NC(=O)[C@H](CC(C)(C)C)NC(=O)[C@H](CC(=O)O)NC2=O (stereo partly drawn) [I-2310, Ac-PL3-Asp-Npg-B5-Asp-3COOHF-Gln-Ala-Phe-Val-PyrS2-3Thi-2NapA-Ala-NH2] | 8.9 µM | 0.018 µM | 
CC(=O)N1CCC[C@]12CC=CCCCC1(CCCC=CCCCOC(=O)N3CC[C@@](C(=O)N[C@@H](Cc4ccsc4)C(=O)N[C@@H](Cc4csc5ccccc45)C(=O)N[C@@H](CCC(N)=O)C(N)=O)(C3)NC(=O)[C@H](CCCNC(=N)N)NC(=O)[C@H](Cc3ccccc3)NC(=O)[C@H](C)NC(=O)C(C)(C)NC(=O)[C@H]([C@@H](C)O)NC(=O)[C@H](CC(N)=O)NC1=O)NC(=O)[C@H](CC(C)(C)C)NC(=O)[C@H](CC(=O)O)NC2=O (stereo partly drawn) [I-2407, Ac-PL3-Asp-Npg-B5-Asn-Thr-Aib-Ala-Phe-Arg-PyrS2-3Thi-BztA-Gln-NH2] | > 20 µM | 0.138 µM | 
CC(=O)N1CCC[C@]12CC=CCCCC1(CCCC=CCCCOC(=O)N3CC[C@@](C(=O)N[C@@H](Cc4ccccc4C(F)(F)F)C(=O)N[C@H](C(=O)N[C@@H](C)C(N)=O)[C@H](C)c4csc5ccccc45)(C3)NC(=O)[C@H](CC(C)C)NC(=O)[C@H](Cc3ccccc3)NC(=O)[C@H](C)NC(=O)[C@H](CCC(N)=O)NC(=O)[C@H](Cc3cccc(C(=O)O)c3)NC(=O)[C@H](CC(=O)O)NC1=O)NC(=O)[C@H](CC(C)(C)C)NC(=O)[C@H](CC(=O)O)NC2=O (stereo partly drawn) [I-2459, Ac-PL3-Asp-Npg-B5-Asp-3COOHF-Gln-Ala-Phe-Leu-PyrS2-2F3MeF-RbMeBztA-Ala-NH2] | 15.1 µM | 0.056 µM | 
CC(=O)N1CCC[C@]12CC=CCCCC1(CCCC=CCCCOC(=O)N3CC[C@@](C(=O)N[C@@H](Cc4ccsc4)C(=O)N[C@@H](Cc4csc5ccccc45)C(=O)N[C@@H](CCC(N)=O)C(N)=O)(C3)NC(=O)[C@H](CC(C)C)NC(=O)[C@H](Cc3ccccc3)NC(=O)[C@H](C)NC(=O)[C@H](C)NC(=O)[C@H](CNc3ncccc3C(=O)O)NC(=O)[C@H](CC(=O)O)NC1=O)NC(=O)[C@H](CC(C)(C)C)NC(=O)[C@H](CC(=O)O)NC2=O (stereo partly drawn) [I-1845, Ac-PL3-Asp-Npg-B5-Asp-[2Nic]Dap-Ala-Ala-Phe-Leu-PyrS2-3Thi-BztA-Gln-NH2] | 6.3 µM | 0.03 µM | 
CC(=O)N1CCC[C@]12CC=CCCCC1(CCCC=CCCCOC(=O)N3CC[C@@](C(=O)N[C@@H](Cc4ccsc4)C(=O)N[C@@H](Cc4csc5ccccc45)C(=O)N[C@@H](CCC(N)=O)C(N)=O)(C3)NC(=O)[C@H](CCCN3CCOCC3)NC(=O)[C@H](Cc3ccccc3)NC(=O)[C@H](C)NC(=O)[C@H](C)NC(=O)[C@H](CC(=O)O)NC(=O)[C@H](CC(=O)O)NC1=O)NC(=O)[C@H](CC(C)(C)C)NC(=O)[C@H](CC(=O)O)NC2=O (stereo partly drawn) [I-1485, Ac-PL3-Asp-Npg-B5-Asp-Asp-Ala-Ala-Phe-MorphNva-PyrS2-3Thi-BztA-Gln-NH2] | 25.8 µM | 0.007 µM | 
CC[C@@H]1NC(=O)[C@H](Cc2ccccc2)NC(=O)[C@H](C)NC(=O)C(C)(C)NC(=O)[C@H](Cc2cccc(C(=O)O)c2)NC(=O)[C@H](CC(=O)O)NC(=O)C2(CCCC=CCCCOC(=O)N3CC[C@@](C(=O)N[C@@H](Cc4ccsc4)C(=O)N[C@@H](Cc4csc5ccccc45)C(=O)N[C@@H](CCC(=O)N4CCN(C(C)=O)CC4)C(N)=O)(C3)NC1=O)CCCC=CC[C@]1(CCCN1C(C)=O)C(=O)N[C@@H](CC(=O)O)C(=O)N[C@@H](CC(C)(C)C)C(=O)N2 (stereo partly drawn) [I-2561, Ac-PL3-Asp-Npg-B5-Asp-3COOHF-Aib-Ala-Phe-Abu-PyrS2-3Thi-BztA-[AcPpz]GlnR-NH2] | 7.2 µM | 0.005 µM | 
CC(=O)N1CCC[C@]12CC=CCCCC1(CCCC=CCCCOC(=O)N3CC[C@@](C(=O)N[C@@H](Cc4ccccc4)C(=O)N[C@@H](Cc4csc5ccccc45)C(=O)N[C@@H](Cc4ccccc4)C(N)=O)(C3)NC(=O)[C@H](CC(N)=O)NC(=O)[C@H](Cc3ccccc3)NC(=O)[C@H](C)NC(=O)[C@H](CCCCNC(C)C)NC(=O)[C@H](CCC(N)=O)NC(=O)[C@H](CC(=O)O)NC1=O)NC(=O)[C@H](CC1CCCCC1)NC(=O)[C@H](CC(N)=O)NC2=O (stereo partly drawn) [I-2068, Ac-PL3-Asn-Cha-B5-Asp-Gln-iPrLys-Ala-Phe-Asn-PyrS2-Phe-BztA-Phe-NH2] |  | 0.338 µM | > 20 µM
